Assay results from ChEMBL document CHEMBL4732094, “Synthesis of some new benzoxazole derivatives and investigation of their anticancer activities” (Eur J Med Chem, 2021).

Assays:
HepG2 [1] = experiment: Cytotoxicity against human HepG2 cells assessed as cell viability measured after 24 hrs by MTT assay; format: functional, cell-based; settings: HepG2, 24 h
HT-29 [2] = experiment: Induction of apoptosis in human HT-29 cells assessed as necrotic cells at IC50 concentration measured after 24 hrs by Annexin V-FITC/PI staining based flow cytometry method (reference value: 7.2%); format: functional
[3] = Selectivity index, ratio of IC50 for cytotoxicity against mouse NIH3T3 cells to IC50 for cytotoxicity against human MCF7 cells; format: toxicity, cell-based; settings: NIH3T3 cells versus MCF7 cells, read-out: Ratio IC50
C6 [4] = experiment: Inhibition of DNA synthesis in rat C6 cells assessed as reduction in cell proliferation measured after 24 to 48 hrs by BrdU proliferation assay; format: functional, cell-based; settings: time 24-48 hrs
MCF7 [5] = experiment: Induction of apoptosis in human MCF7 cells assessed as early apoptotic cells at IC50 concentration measured after 24 hrs by Annexin V-FITC/PI staining based flow cytometry method (reference value: 2.2%); format: functional
HepG2 [6] = experiment: Induction of apoptosis in human HepG2 cells assessed as necrotic cells at IC50 concentration measured after 24 hrs by Annexin V-FITC/PI staining based flow cytometry method (reference value: 4.6%); format: functional
HT-29 [7] = experiment: Cytotoxicity against human HT-29 cells assessed as cell viability measured after 24 hrs by MTT assay; format: functional, cell-based; settings: HT-29, 24 h
MCF7 [8] = experiment: Inhibition of DNA synthesis in human MCF7 cells assessed as reduction in cell proliferation measured after 24 to 48 hrs by BrdU proliferation assay; format: functional, cell-based; settings: time 24-48 hrs
C6 [9] = experiment: Cytotoxicity against rat C6 cells assessed as cell viability measured after 24 hrs by MTT assay; format: functional, cell-based; settings: C6, 24 h
[10] = Selectivity index, ratio of IC50 for cytotoxicity against mouse NIH3T3 cells to IC50 for cytotoxicity against rat C6 cells; format: toxicity, cell-based; settings: NIH3T3 cells versus C6 cells, read-out: Ratio IC50
HepG2 [11] = experiment: Inhibition of DNA synthesis in human HepG2 cells assessed as reduction in cell proliferation measured after 24 to 48 hrs by BrdU proliferation assay; format: functional, cell-based; settings: time 24-48 hrs
HepG2 [12] = experiment: Induction of apoptosis in human HepG2 cells assessed as early apoptotic cells at IC50 concentration measured after 24 hrs by Annexin V-FITC/PI staining based flow cytometry method (reference value: 0.9%); format: functional
HT-29 [13] = experiment: Inhibition of DNA synthesis in human HT-29 cells assessed as reduction in cell proliferation measured after 24 to 48 hrs by BrdU proliferation assay; format: functional, cell-based; settings: time 24-48 hrs
[14] = Drug metabolism in human HepG2 cells assessed as oxidative dehalogenation after 24 hrs by LCMS-IT-TOF analysis; format: ADME, cell-based; settings: hepg2, 24 h
MCF7 [15] = experiment: Induction of apoptosis in human MCF7 cells assessed as late apoptotic cells at IC50 concentration measured after 24 hrs by Annexin V-FITC/PI staining based flow cytometry method (reference value: 1.8%); format: functional
HT-29 [16] = experiment: Induction of apoptosis in human HT-29 cells assessed as early apoptotic cells at IC50 concentration measured after 24 hrs by Annexin V-FITC/PI staining based flow cytometry method (reference value: 1.1%); format: functional
A549 = experiment: Cytotoxicity against human A549 cells assessed as cell viability measured after 24 hrs by MTT assay; format: functional, cell-based; settings: A549, 24 h
MCF7 [17] = experiment: Cytotoxicity against human MCF7 cells assessed as cell viability measured after 24 hrs by MTT assay; format: functional, cell-based; settings: MCF7, 24 h
HT-29 [18] = experiment: Induction of apoptosis in human HT-29 cells assessed as late apoptotic cells at IC50 concentration measured after 24 hrs by Annexin V-FITC/PI staining based flow cytometry method (reference value: 1.5%); format: functional
[19] = Selectivity index, ratio of IC50 for cytotoxicity against mouse NIH3T3 cells to IC50 for cytotoxicity against human A549 cells; format: toxicity, cell-based; settings: NIH3T3 cells versus A549 cells, read-out: Ratio IC50
MCF7 [20] = experiment: Induction of apoptosis in human MCF7 cells assessed as necrotic cells at IC50 concentration measured after 24 hrs by Annexin V-FITC/PI staining based flow cytometry method (reference value: 1%); format: functional
C6 [21] = experiment: Induction of apoptosis in rat C6 cells assessed as apoptotic cells at IC50 concentration measured after 24 hrs by Annexin V-FITC/PI staining based flow cytometry method relative to control; format: functional
MCF7 [22] = experiment: Induction of apoptosis in human MCF7 cells assessed as viable cells at IC50 concentration measured after 24 hrs by Annexin V-FITC/PI staining based flow cytometry method (reference value: 94.9%); format: functional
[23] = Selectivity index, ratio of IC50 for cytotoxicity against mouse NIH3T3 cells to IC50 for cytotoxicity against human HepG2 cells; format: toxicity, cell-based; settings: NIH3T3 cells versus HepG2 cells, read-out: Ratio IC50
[24] = Drug metabolism in human HepG2 cells assessed as amine metabolite formation after 24 hrs by LCMS-IT-TOF analysis; format: ADME, cell-based; settings: hepg2, 24 h
HepG2 [25] = experiment: Induction of apoptosis in human HepG2 cells assessed as late apoptotic cells at IC50 concentration measured after 24 hrs by Annexin V-FITC/PI staining based flow cytometry method (reference value: 8.7%); format: functional
HepG2 [26] = experiment: Induction of apoptosis in human HepG2 cells assessed as viable cells at IC50 concentration measured after 24 hrs by Annexin V-FITC/PI staining based flow cytometry method (reference value: 87.8%); format: functional
NIH3T3 = experiment: Cytotoxicity against mouse NIH3T3 cells assessed as cell viability measured after 24 hrs by MTT assay; format: cell-based; settings: NIH3T3, 24 h
HT-29 [27] = experiment: Induction of apoptosis in human HT-29 cells assessed as viable cells at IC50 concentration measured after 24 hrs by Annexin V-FITC/PI staining based flow cytometry method (reference value: 90.3%); format: functional
[28] = Selectivity index, ratio of IC50 for cytotoxicity against mouse NIH3T3 cells to IC50 for cytotoxicity against human HT-29 cells; format: toxicity, cell-based; settings: NIH3T3 cells versus HT-29 cells, read-out: Ratio IC50

CN(C)CCCN1CCN(CC(=O)Nc2ccc(-c3nc4cc(Cl)ccc4o3)cc2)CC1
IC50 (HepG2 [1]): 1250 nM | Activity (HT-29 [2]): 0.6% | selectivity ratio [3]: 15.6 | inhibition (C6 [4]): Dose-dependent effect | Activity (MCF7 [5]): 23.7% | Activity (HepG2 [6]): 1.1% | IC50 (HT-29 [7]): 1640 nM | inhibition (MCF7 [8]): Dose-dependent effect | IC50 (C6 [9]): 910 nM | selectivity ratio [10]: 28.3 | inhibition (HepG2 [11]): Dose-dependent effect | Activity (HepG2 [12]): 8.3% | inhibition (HT-29 [13]): Dose-dependent effect | Drug metabolism [14]: Metabolite_Detected | Activity (MCF7 [15]): 46.4% | Activity (HT-29 [16]): 6.5% | IC50 (A549): 4.32 µM | IC50 (MCF7 [17]): 1650 nM | Activity (HT-29 [18]): 7.4% | selectivity ratio [19]: 5.96 | Activity (MCF7 [20]): 3.9% | Activity (C6 [21]): 13.6% | Activity (MCF7 [22]): 25.9% | selectivity ratio [23]: 20.6 | Drug metabolism [24]: Metabolite_Detected | Activity (HepG2 [25]): 27.9% | Activity (HepG2 [26]): 62.6% | IC50 (NIH3T3): 25.8 µM | Activity (HT-29 [27]): 85.5% | selectivity ratio [28]: 15.7
